One assay has as its target human EP4 receptor (Homo sapiens (Human), UniProt P35408). Kind of assay: EP4 antagonistic activity measurement experiment using prostanoid receptor subtype expressing cells. In kind it is cell-based. The settings on record: CHO cells expressing human EP4 receptor; inhibition of cAMP production by PGE2 10 nM; 30 minutes at room temperature. How it is done:
CHO cells expressing human EP4 receptor subtypes were prepared according to the methods of Nishigaki et al. (Non-Patent Literature 4), and used for experiment. Cells cultured to subconfluent were detached, and suspended in an assay medium (MEM containing 1 mmol/L IBMX, 1% HSA) such that a concentration became 1×10^6 cells/mL. For reaction, PGE2 was added to the cell suspension (25 μL) in a final concentration of 10 nmol/L, either alone or as a 25-μL PGE2 solution containing the test compound. After 30 minutes of reaction at room temperature, the amount of cAMP in the cells was quantified according to the method in the descriptions of the cAMP assay kit (CISBIO).
Note here that the antagonistic effect (IC50 value) of the test compound was calculated as a value that represents an inhibition rate against a reaction with PGE2 alone at 10 nM, a concentration that produces a submaximal cAMP producing effect.
A general note: Cyclic AMP is a second messenger, typically raised through Gs and lowered through Gi signalling.

In another assay the target is human EP3 receptor (Homo sapiens (Human), UniProt P43115). As to the kind of experiment: EP3 binding activity measurement experiment using prostanoid receptor subtype expressing cells. Particulars: human EP3 receptor expressing cell membrane fraction; [3H]-PGE2 2.5 nmol/L; Ki calculated from estimated IC50. The protocol:
To each well of a 96 well plate, 10 μL of a medium (dimethyl sulfoxide; DMSO) which had been 10-fold diluted with an assay buffer solution (10 mmol/L KH2PO4—KOH containing 1 mmol/L EDTA, 10 mmol/L Mg^2+ and 100 mmol/L NaCl, pH6.0) or a DMSO solution of a test compound (final concentration of DMSO: 0.5%), 90 μL of assay buffer solution, 50 μL of 10 nmol/L [^3H]-PGE2 (final concentration: 2.5 nmol/L), and 50 μL of human EP3 receptor expressing cell membrane fraction (manufactured by Millipore) (membrane protein mass: 2.5 μg) were placed, and subjected to incubation at room temperature. In nonspecific binding group, instead of the medium, […] of PGE2 was added (final concentration of PGE2: 10 μmol/L). After 60 minutes, a membrane fraction was subjected to suction filtration using a cell harvester, and collected onto a glass fiber (GF/B) plate (hereinafter, “filter plate”) which had been wetted with a washing buffer solution (10 mmol/L KH2PO4—KOH containing 100 mmol/L NaCl, pH6.0) in advance. Furthermore, an operation of adding about 0.2 mL of the washing buffer solution to the 96 well plate after suction filtration, and carrying out suction filtration was repeated twice, and the remaining membrane fractions were collected. The filter plate was washed with […] of washing buffer solution twice, and then dried at 50° C. to 60° C. for about 60 minutes. After an accessary back seal was attached to the bottom surface of the filter plate, about 50 μL per well of liquid scintillation cocktail was added to the filter plate, and a scaling film sheet was attached to the upper surface of the filter plate. The filter plate was shaken, and then radioactivity (cpm) of the filter plate was measured using a microplate scintillation counter. A specific binding amount of [^3H]-PGE2 to EP3 receptor was calculated by subtracting the radioactivity of the nonspecific binding group from the radioactivity other than the radioactivity of the nonspecific binding group. The inhibition rate by the test compound was calculated from the specific binding amount of [^3H]-PGE2 in a medium group and the compound of the present invention group, a Ki value (dissociation constant of the test compound) was calculated from estimated IC50 value (the concentration of the test compound required for inhibiting 50% with respect to the specific binding amount of the medium group) according to the following formula.
Note here that the Kd value of [^3H]-PGE2 was estimated from nonlinear regression analysis by calculating a specific binding amount at the time when [^3H]-PGE2 having various concentrations according to the above method was added. As a result, it was shown that the compound of the present invention had weak binding activity with respect to EP3 receptor, and was an antagonist selective to the EP4 receptor. Note here that binding activities with respect to EP1 and EP2 receptors can be measured by the same method as the measurement experiment of the EP3 binding activity measurement experiment.

A word on the IC50: it is the concentration that inhibits the measured activity by half. The Ki is a measure of affinity in units of concentration, obtained from inhibition or displacement.

Structures are written as SMILES.

human EP4 receptor, sequence (P35408 whole entry): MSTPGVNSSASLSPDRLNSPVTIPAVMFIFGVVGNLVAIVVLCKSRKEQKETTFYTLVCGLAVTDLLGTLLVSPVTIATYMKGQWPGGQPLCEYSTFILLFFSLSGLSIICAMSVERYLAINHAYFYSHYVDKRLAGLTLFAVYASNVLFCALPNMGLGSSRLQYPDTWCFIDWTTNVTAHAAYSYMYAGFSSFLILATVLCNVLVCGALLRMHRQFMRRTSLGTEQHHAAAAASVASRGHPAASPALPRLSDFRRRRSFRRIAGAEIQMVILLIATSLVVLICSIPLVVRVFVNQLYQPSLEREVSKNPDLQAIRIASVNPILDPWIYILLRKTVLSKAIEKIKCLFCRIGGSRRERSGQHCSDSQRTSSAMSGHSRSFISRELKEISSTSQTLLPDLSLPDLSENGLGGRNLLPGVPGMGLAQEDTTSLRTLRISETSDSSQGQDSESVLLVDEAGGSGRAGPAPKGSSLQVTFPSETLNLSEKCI
human EP3 receptor, sequence (P43115 whole entry): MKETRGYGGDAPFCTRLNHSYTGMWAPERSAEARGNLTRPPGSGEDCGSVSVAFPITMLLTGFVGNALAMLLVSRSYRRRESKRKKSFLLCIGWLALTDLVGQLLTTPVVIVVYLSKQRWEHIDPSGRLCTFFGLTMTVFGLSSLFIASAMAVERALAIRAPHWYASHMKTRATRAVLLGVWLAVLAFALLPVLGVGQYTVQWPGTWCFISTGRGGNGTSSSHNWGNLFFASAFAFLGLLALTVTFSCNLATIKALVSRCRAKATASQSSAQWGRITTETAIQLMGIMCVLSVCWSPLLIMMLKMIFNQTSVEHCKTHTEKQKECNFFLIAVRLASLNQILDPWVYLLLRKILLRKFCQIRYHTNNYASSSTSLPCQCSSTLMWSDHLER

`CNC(=O)c1ccc2c(C)cn(C(C)C(=O)Nc3cc(CN4CCCS4(=O)=O)ccc3CCCC(=O)O)c2c1` (stereo not drawn) [Example 1, 4-{4-[(1,1-dioxide-1,2-thiazolidin-2-yl)methyl]-2-({2-[3-methyl-6-(methylcarbamoyl)-1H-indol-1-yl]propanoyl}amino)phenyl}butanoic acid] registered a half-inhibitory concentration (IC50) against human EP4 receptor of 27 nM. Further, the Ki on human EP3 receptor was above 10000 nM. As for `COCCNC(=O)c1ccc2c(C)cn(C(C)C(=O)Nc3cc(Cn4cnc(C(F)(F)F)n4)ccc3CCCC(=O)O)c2c1` (single isomer, unassigned) [Example 7-1(2), 4-(2-[(2-{6-[(2-methoxyethyl)carbamoyl]-3-methyl-1H-indol-1-yl}propanoyl)amino]-4-{[3-(trifluoromethyl)-1H-1,2,4-triazol-1-yl]methyl}phenyl)butanoic acid], the IC50 at human EP4 receptor turned out to be 3.3 nM. `COCCNC(=O)c1ccc2c(C)cn(C(C)C(=O)Nc3cc(F)ccc3CCCC(=O)O)c2c1` (single isomer, unassigned) [Example 11-30(2), 4-{4-fluoro-2-[(2-{6-[(2-methoxyethyl)carbamoyl]-3-methyl-1H-indol-1-yl}propanoyl)amino]phenyl}butanoic acid] came in with an IC50 at human EP4 receptor of 12 nM. This IC50 is about 3.6-fold higher than that of the compound before. On the same count and under the same terms, next, `CNC(=O)c1ccc2c(C)cn(C(C)C(=O)Nc3cc(Cn4cnc(C(F)(F)F)n4)ccc3CCCC(=O)O)c2c1` (single isomer, unassigned) [Example 7-3(2), 4-[2-({2-[3-methyl-6-(methylcarbamoyl)-1H-indol-1-yl]propanoyl}amino)-4-{[3-(trifluoromethyl)-1H-1,2,4-triazol-1-yl]methyl}phenyl]butanoic acid]: 1.5 nM. Compound `COCCNC(=O)c1ccc2c(C)cn(C(C)C(=O)Nc3cc(Cn4cc(C)cn4)ccc3CCCC(=O)O)c2c1` (single isomer, unassigned) [Example 3-9(2), 4-{2-[(2-{6-[(2-methoxyethyl)carbamoyl]-3-methyl-1H-indol-1-yl}propanoyl)amino]-4-[(4-methyl-1H-pyrazol-1-yl)methyl]phenyl}butanoic acid] had an IC50 against human EP4 receptor of 0.7 nM. On human EP3 receptor, the Ki was 410 nM. The compound `COCCNC(=O)c1ccc2c(c1)c(C)cn2C(C)C(=O)Nc1cc(Cn2cc(C)cn2)ccc1CCCC(=O)O` (single isomer, unassigned) [Example 8-13(2), 4-{2-[(2-{5-[(2-methoxyethyl)carbamoyl]-3-methyl-1H-indol-1-yl}propanoyl)amino]-4-[(4-methyl-1H-pyrazol-1-yl)methyl]phenyl}butanoic acid] displayed an IC50 at human EP4 receptor of 6.3 nM. Also, the Ki at human EP3 receptor is 1600 nM.

Compound `CNC(=O)c1ccc2c(C)cn(C(C)C(=O)Nc3cc(C(=O)c4cnn(C)c4)ccc3CCCC(=O)O)c2c1` (stereo not drawn) [Example 18-5(2)] had an IC50 against human EP4 receptor of 3.2 nM. Besides, at human EP3 receptor, the Ki is 120 nM. For `CNC(=O)c1ccc2c(C)cn(C(C)C(=O)Nc3cc(C(O)c4cnn(C)c4)ccc3CCCC(=O)O)c2c1` (stereo not drawn) [Example 18-3], the IC50 on human EP4 receptor came to 6.2 nM.

As to `CCNC(=O)c1ccc2c(C)cn([C@H](C)C(=O)Nc3cc(C#N)ccc3CCCC(=O)O)c2c1` [Example 11-1(2)], at human EP4 receptor, the IC50 is 1.3 nM. Same read-out and setting: then `Cc1cnn(Cc2ccc(CCCC(=O)O)c(NC(=O)C(C)n3cc(C)c4ccc(C(=O)N(C)C)cc43)c2)c1` (single isomer, unassigned) [Example 3-11(2), 4-{2-({2-[6-(dimethylcarbamoyl)-3-methyl-1H-indol-1-yl]propanoyl}amino)-4-[(4-methyl-1H-pyrazol-1-yl)methyl]phenyl}butanoic acid], with 4.6 nM; and `CNC(=O)c1ccc2c(C)cn(C(C)C(=O)Nc3cc(Cn4cnc(C5CC5)n4)ccc3CCCC(=O)O)c2c1` (single isomer, unassigned) [Example 4-1(2), 4-{4-[(3-cyclopropyl-1H-1,2,4-triazol-1-yl)methyl]-2-({2-[3-methyl-6-(methylcarbamoyl)-1H-indol-1-yl]propanoyl}amino)phenyl}butanoic acid], with 2.5 nM. For the compound `CNC(=O)c1ccc2c(c1)c(C)cn2C(C)C(=O)Nc1cc(Cn2cc(C)cn2)ccc1CCCC(=O)O` (single isomer, unassigned) [Example 8-3(2), 4-{2-({2-[3-methyl-5-(methylcarbamoyl)-1H-indol-1-yl]propanoyl}amino)-4-[(4-methyl-1H-pyrazol-1-yl)methyl]phenyl}butanoic acid], the IC50 against human EP4 receptor worked out at 4.8 nM. For the same compound, at human EP3 receptor, the Ki is 1500 nM.

The compound `CNC(=O)c1ccc2c(C)cn(C(C)C(=O)Nc3cc(Cn4cc(Cl)cn4)ccc3CCCC(=O)O)c2c1` (stereo not drawn) [Example 1-14, 4-{4-[(4-chloro-1H-pyrazol-1-yl)methyl]-2-({2-[3-methyl-6-(methylcarbamoyl)-1H-indol-1-yl]propanoyl}amino)phenyl}butanoic acid] registered an IC50 against human EP4 receptor of 3.3 nM.

`COCCNC(=O)c1ccc2c(C)cn(C(C)C(=O)Nc3cc(C#N)ccc3CCCC(=O)O)c2c1` (single isomer, unassigned) [Example 11-15(2), 4-{4-cyano-2-[(2-{6-[(2-methoxyethyl)carbamoyl]-3-methyl-1H-indol-1-yl}propanoyl)amino]phenyl}butanoic acid] registered an IC50 against human EP4 receptor of 1.9 nM. For the same compound, the Ki at human EP3 receptor was 2300 nM. The compound `CNC(=O)c1ccc2c(C)cn(C(C)C(=O)Nc3cc(Cn4nc(C)cc4C(F)(F)F)ccc3CCCC(=O)O)c2c1` (single isomer, unassigned) [Example 2-27(4), 4-[2-({2-[3-methyl-6-(methylcarbamoyl)-1H-indol-1-yl]propanoyl}amino)-4-{[3-methyl-5-(trifluoromethyl)-1H-pyrazol-1-yl]methyl}phenyl]butanoic acid] returned a 50% inhibitory concentration (IC50) against human EP4 receptor of 1.8 nM. This lies in the single-digit nanomolar range.

The record behind these values is patent US11479550B2, “EP4 antagonist” (ONO PHARMACEUTICAL CO., LTD., priority 2017, dated 2022).
